According to patent publication US10273272B2, “Antimicrobial peptides” (Amprologix Limited, priority 2014, dated 2019):
≈ marks a conversion by molar mass, not a printed value. Where two headings read alike, the source gives them in different places. Residues, ends and D or L forms follow the SMILES beside them. No end group written: not given here.

Tests used:
haemolysis = experiment: Haemolysis assay (in vitro toxicity testing); assay type: cell-based; details: summary of Table 6
Procedure: In addition, in vitro toxicity testing (haemolysis assays) indicates a lack of toxicity at levels well above MIC for some peptides, indicating potential for a wide therapeutic window (Table 6). […] Since increased net charge is known to be associated with higher levels of haemolysis, (Dhople and Nagaraj, Peptides 2005: 26: 217-225), this was not wholly unexpected.
Experiments were conducted to assess the percentage haemolysis against peptide concentration for peptides SEQ ID NOs: 4, 5, 6 and 7 against full length epidermicin (SEQ ID NO:10) and SEQ ID NO:12.

S aureus 1195 = assay type: cell-based
Procedure: (§1) A series of derivatives of the NI0138-51 (SEQ ID NO:12) truncation were carried out with a view to maintaining stability of the helix and/or increasing net positive charge of the peptides (Table 3). Minimum inhibitory concentrations (MICs) were determined for each derivative against a range of Gram positive and Gram negative organisms by a modified 2-fold microtitre broth dilution method (Wu and Hancock, J Biol Chem 1999; 274: 29-35) (Table 2). […] This could not have been predicted.

N. lactamica = assay type: cell-based
Procedure: as §1

P. aeruginosa = assay type: cell-based
Procedure: as §1

E. coli = assay type: cell-based; details: for Average MIC: average of triplicate experiments, Table 5
Procedure: as §1

S. aureus 1195 = assay type: cell-based
Procedure: (§2) Experiments were conducted in which the full-length epidermicin peptide (51 amino acids, SEQ ID NO:10) was truncated to yield the derivatives shown in FIG. 1 (SEQ ID NOs:11 to 19). NI011-37 (SEQ ID NO:11) Is the region most similar to other peptides in the public domain, NI0138-51 (SEQ ID NO:12) is the region that is most unique with respect to other peptides in the public domain. All other truncations have been carried out by removing residues from the amino-terminal end of the peptide to each lysine residue (K). Lysine is important in antimicrobial peptides as it contributes to the net positive charge, which is thought to have a key role in the mode of action of ‘cationic’ peptides, like NI01 (SEQ ID NO:10).

S. Hominis = assay type: cell-based
Procedure: as §2

[1] = test system: Vanc. resistant Enterococcus; assay type: cell-based
Procedure: as §2

S. saprophyticus = assay type: cell-based
Procedure: as §2

MRSA [2] = assay type: cell-based, Staphylococcus aureus
Procedure: as §2

Gram-negative bacteria = assay type: cell-based; details: previous data, not presented
Procedure: It was a most surprising finding that the truncated and modified novel peptides of the present invention based on the epidermicin peptide were effective against Gram negative bacteria.
as §1

[3] = test system: Gram positive and negative bacteria; experiment: Antimicrobial activity against drug-resistant pathogens, summary in words; assay type: cell-based; details: summary of Table 2
Procedure: as §1

MRSA [4] = assay type: cell-based, Staphylococcus aureus; remark: listed apart in the source
Procedure: as §1

[5] = test system: Klebsiella (K. pneumoniae); assay type: cell-based
Procedure: as §1

VISA = assay type: cell-based
Procedure: as §1

Molecule | MIC (S aureus 1195) | MIC (N. lactamica) | MIC (P. aeruginosa) | MIC (E. coli; E. coli 50, Table 2) | MIC (E. coli; E. coli 178, Table 2) | MIC (E. coli; E. coli DH5α, Table 2) | MIC (E. coli; E.coli 177, Table 2) | MIC (S. aureus 1195) | MIC (S. Hominis) | MIC (S. saprophyticus) | MIC [5] | MIC (VISA) | further results
CC[C@H](C)[C@H](NC(=O)[C@H](CCC(N)=O)NC(=O)[C@H](CCCCN)NC(=O)[C@H](Cc1ccc(O)cc1)NC(=O)[C@@H](NC(=O)[C@H](Cc1c[nH]c2ccccc12)NC(=O)[C@H](CCCCN)NC(=O)[C@H](Cc1ccccc1)NC(=O)[C@H](CO)NC=O)[C@@H](C)CC)C(=O)N[C@@H](CCCCN)C(=O)N[C@@H](CCCCN)C(=O)N[C@@H](CC(C)C)C(=O)N[C@@H](Cc1c[nH]c2ccccc12)C(=O)N[C@@H](C)C(=O)O [SEQ ID NO:4, formyl-SFKWIYKQIKKLWA] (HELM PEPTIDE1{[O=C[*:2]].S.F.K.W.I.Y.K.Q.I.K.K.L.W.A}$$$$V2.0; C-terminus assumed) | 1.7 µg/mL (≈ 0.91 µM) | 6.7 µg/mL (≈ 3.59 µM) | 6.7 µg/mL (≈ 3.59 µM) | 2.3 µg/mL (≈ 1.23 µM) | 1.3 µg/mL (≈ 0.696 µM) | 1.5 µg/mL (≈ 0.803 µM) | 2 µg/mL (≈ 1.07 µM) | – | – | – | – | – | haemolytic activity / toxicity, in words (haemolysis): higher levels of haemolytic activity
KGQKYVSLAWKHKGTILKWINAGQSFEWIYKQIKKLWA [SEQ ID NO:14] | – | – | – | – | – | – | – | 8 µg/mL | 6 µg/mL | 8 µg/mL | – | – | MIC [1]: 4 µg/mL
KGTILKWINAGQSFEWIYKQIKKLWA [SEQ ID NO:17] | – | – | – | – | – | – | – | 8 µg/mL | 16 µg/mL | 4 µg/mL | – | – | –
KHKGTILKWINAGQSFEWIYKQIKKLWA [SEQ ID NO:16] | – | – | – | – | – | – | – | 8 µg/mL | 4 µg/mL | 8 µg/mL | – | – | MIC (MRSA [2]): 12 µg/mL
KLIQFLATKGQKYVSLAWKHKGTILKWINAGQSFEWIYKQIKK [SEQ ID NO:13] | – | – | – | – | – | – | – | 8 µg/mL | 16 µg/mL | 8 µg/mL | – | – | –
KWINAGQSFEWIYKQIKKLWA [SEQ ID NO:18] | – | – | – | – | – | – | – | 8 µg/mL | 6 µg/mL | 4 µg/mL | – | – | MIC [1]: 4 µg/mL
KYVSLAWKHKGTILKWINAGQSFEWIYKQIKKLWA [SEQ ID NO:15] | – | – | – | – | – | – | – | 8 µg/mL | 6 µg/mL | 4 µg/mL | – | – | –
MAAFMKLIQFLATKGQKYVSLAWKHKGTILKWINAGQ [SEQ ID NO:11] | – | – | – | – | – | – | – | 8 µg/mL | 12 µg/mL | 8 µg/mL | – | – | MIC [1]: 8 µg/mL
MAAFMKLIQFLATKGQKYVSLAWKHKGTILKWINAGQSFEWIYKQIKKLWA [SEQ ID NO:10, reference compound] | – | – | – | – | – | – | – | 0.16 µg/mL | 0.42 µg/mL | 0.02 µg/mL | – | – | MIC (MRSA [2]): 0.03 µg/mL; MIC values against Gram-negative bacteria (Gram-negative bacteria): > 64 µg/mL
SFEWIKYQIKKLWA [SEQ ID NO:2, SFEWIKYQIKKLWA] | 9 µg/mL | 37.3 µg/mL | >64 µg/mL | 27 µg/mL | 27 µg/mL | 17 µg/mL | 19 µg/mL | – | – | – | – | – | antimicrobial activity against Gram positive and negative bacteria, in words [3]: significantly reduced activity; Average MIC (S aureus 1195): 9 µg/mL; Average MIC (E. coli; E. coli 49): 24 µg/mL; Average MIC (E. coli; E. coli 50): 27 µg/mL; Average MIC (E. coli; E. coli 177): 19 µg/mL; Average MIC (E. coli; E. coli 178): 27 µg/mL; Average MIC (E. coli; E. coli 187): 17 µg/mL; Average MIC (E. coli; E. coli DH5a): 17 µg/mL
SFEWIYKQIFKLWA [SEQ ID NO:1, SFEWIYKQIFKLWA] | >64 µg/mL | >64 µg/mL | >64 µg/mL | >64 µg/mL | >64 µg/mL | >64 µg/mL | >64 µg/mL | – | – | – | >64 µg/mL | >64 µg/mL | MIC (MRSA [4]): >64 µg/mL; antimicrobial activity against Gram positive and negative bacteria, in words [3]: significantly reduced activity; Average MIC (S aureus 1195): >64 µg/mL; Average MIC [5]: >64 µg/mL; Average MIC (E. coli; E. coli 49): >64 µg/mL; Average MIC (E. coli; E. coli 50): >64 µg/mL; Average MIC (E. coli; E. coli 177): >64 µg/mL; Average MIC (E. coli; E. coli 178): >64 µg/mL; Average MIC (E. coli; E. coli 187): >64 µg/mL; Average MIC (E. coli; E. coli DH5a): >64 µg/mL
SFEWIYKQIKKLWA [SEQ ID NO:12, SFEWIYKQIKKLWA] | – | 10.6 µg/mL | 64 µg/mL | 7 µg/mL | 5 µg/mL | 8 µg/mL | 5 µg/mL | 4 µg/mL | 4 µg/mL | 4 µg/mL | – | – | haemolytic activity / toxicity, in words (haemolysis): higher levels of haemolytic activity; MIC (MRSA [2]): 12 µg/mL; Average MIC (S aureus 1195): 4 µg/mL; Average MIC (E. coli; E. coli 49): 9 µg/mL; Average MIC (E. coli; E. coli 50): 7 µg/mL; Average MIC (E. coli; E. coli 177): 5 µg/mL; Average MIC (E. coli; E. coli 178): 5 µg/mL; Average MIC (E. coli; E. coli 187): 5 µg/mL; Average MIC (E. coli; E. coli DH5a): 8 µg/mL
SFEWIYKQIKKLWAK [SEQ ID NO:6, SFEWIYKQIKKLWAK] | 3.3 µg/mL | 21.3 µg/mL | 32 µg/mL | 4 µg/mL | 8 µg/mL | 6.7 µg/mL | 4 µg/mL | – | – | – | 10.7 µg/mL | >64 µg/mL | haemolytic activity / toxicity, in words (haemolysis): higher levels of haemolytic activity
SFEWIYKQIKKLWAKKK [SEQ ID NO:7, SFEWIYKQIKKLWAKKK] | 1.7 µg/mL | 37.3 µg/mL | 8 µg/mL | 4.3 µg/mL | 3.3 µg/mL | 4 µg/mL | 3 µg/mL | – | – | – | – | – | haemolytic activity / toxicity, in words (haemolysis): relatively low levels of haemolysis
SFEWIYKQIWKLKRGLA [SEQ ID NO:3, SFEWIYKQIWKLKRGLA] | 13 µg/mL | >64 µg/mL | >64 µg/mL | 11 µg/mL | 21 µg/mL | 9 µg/mL | 5 µg/mL | – | – | – | >64 µg/mL | – | antimicrobial activity against Gram positive and negative bacteria, in words ([3]; listed as 3): significantly reduced activity; antimicrobial activity against Gram positive and negative bacteria, in words ([3]; listed as SEQ ID: No 3): very low levels of activity; Average MIC (S aureus 1195): 13 µg/mL; Average MIC [5]: >64 µg/mL; Average MIC (E. coli; E. coli 49): 19 µg/mL; Average MIC (E. coli; E. coli 50): 11 µg/mL; Average MIC (E. coli; E. coli 177): 5 µg/mL; Average MIC (E. coli; E. coli 178): 21 µg/mL; Average MIC (E. coli; E. coli 187): 11 µg/mL; Average MIC (E. coli; E. coli DH5a): 9 µg/mL; activity against E coli strains tested, in words (E. coli; summary of Table 2): good activity
SFEWIYKQPKKLWA [SEQ ID NO:20, SFEWIYKQPKKLWA] | >64 µg/mL | – | >64 µg/mL | >64 µg/mL | >64 µg/mL | >64 µg/mL | >64 µg/mL | – | – | – | >64 µg/mL | >64 µg/mL | MIC (MRSA [4]): >64 µg/mL
SFKWIYKQIKKLWA [SEQ ID NO:5, SFKWIYKQIKKLWA] | 1.2 µg/mL | 4.7 µg/mL | – | 1.3 µg/mL | 1.3 µg/mL | 2 µg/mL | 2 µg/mL | – | – | – | – | – | haemolytic activity / toxicity, in words (haemolysis): higher levels of haemolytic activity
SFKWIYKQPKKLWA [SEQ ID NO:21, SFKWIYKQPKKLWA] | 42.7 µg/mL | – | >64 µg/mL | 64 µg/mL | 64 µg/mL | 26.7 µg/mL | 53.3 µg/mL | – | – | – | >64 µg/mL | >64 µg/mL | –
SFKWIYKQPKKLWAKKK [SEQ ID NO:23, SFKWIYKQPKKLWAKKK] | 8 µg/mL | – | >64 µg/mL | 18.7 µg/mL | 26.7 µg/mL | 13.3 µg/mL | 16 µg/mL | – | – | – | >64 µg/mL | >64 µg/mL | –
SFKWPYKQIKKLWA [SEQ ID NO:22, SFKWPYKQIKKLWA] | 16 µg/mL | – | 64 µg/mL | – | 32 µg/mL | 10.7 µg/mL | 13.3 µg/mL | – | – | – | – | >64 µg/mL | –
